Measured values: BindingDB's records for doi:10.1021/acschembio.5b00817 (University of Leipzig, 2015)

How the values were obtained:
[1] = target: T1, Signal transducer and activator of transcription 5A (Homo sapiens, UniProt P42229); assay: Fluorescence Polarization Assay
T1 sequence (P42229 whole entry): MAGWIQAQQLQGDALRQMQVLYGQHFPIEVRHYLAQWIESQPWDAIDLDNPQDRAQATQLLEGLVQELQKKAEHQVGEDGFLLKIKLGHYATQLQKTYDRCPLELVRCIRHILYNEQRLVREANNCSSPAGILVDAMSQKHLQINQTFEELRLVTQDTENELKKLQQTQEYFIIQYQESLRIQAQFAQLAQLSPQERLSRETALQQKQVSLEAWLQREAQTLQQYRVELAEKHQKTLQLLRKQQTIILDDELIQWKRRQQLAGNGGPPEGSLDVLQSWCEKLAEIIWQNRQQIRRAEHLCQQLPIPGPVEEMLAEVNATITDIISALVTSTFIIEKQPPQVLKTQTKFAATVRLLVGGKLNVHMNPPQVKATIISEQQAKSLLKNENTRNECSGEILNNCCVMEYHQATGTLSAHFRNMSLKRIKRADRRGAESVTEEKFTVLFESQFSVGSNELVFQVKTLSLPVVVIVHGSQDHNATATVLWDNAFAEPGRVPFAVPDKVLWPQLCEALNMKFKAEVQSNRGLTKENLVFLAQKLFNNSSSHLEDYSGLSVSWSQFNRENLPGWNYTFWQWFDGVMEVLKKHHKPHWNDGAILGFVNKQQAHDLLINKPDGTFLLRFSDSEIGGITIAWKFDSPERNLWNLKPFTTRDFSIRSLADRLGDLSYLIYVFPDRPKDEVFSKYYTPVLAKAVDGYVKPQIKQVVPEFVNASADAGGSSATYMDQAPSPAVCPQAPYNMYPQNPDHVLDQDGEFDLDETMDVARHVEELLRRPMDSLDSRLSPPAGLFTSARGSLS
Description: (§1) For competition-based fluorescence polarization assays, the ability of the test compounds to displace fluorophore-labeled peptides from their respective binding proteins was analyzed as previously described.3 Peptide sequences were: STAT1: 5-carboxyfluorescein-GY(PO3H2)DKPHVL; STAT3: 5-carboxyfluorescein-GY(PO3H2)LPQTV-NH2; STAT4: 5-carboxyfluorescein-GY(PO3H2)LPQNID-OH; STAT5a and STAT5b: 5-carboxyfluorescein-GY(PO3H2)LVLDKW; STAT6: 5-carboxyfluorescein-GY(PO3H2)VPWQDLI-OH; Lck SH2: 5-carboxyfluorescein-GY(PO3H2)EEIP. Due to protein instability, STAT2 was not analyzed. Final concentration of 5-carboxyfluorescein-labeled peptides: 10 nM. […] Pipetting was carried out partly using a Biomek FX workstation (Beckman-Coulter). Pr

[2] = target: T2, Signal transducer and activator of transcription 5B (Homo sapiens, UniProt P51692); assay: Fluorescence Polarization Assay
T2 sequence (P51692 whole entry): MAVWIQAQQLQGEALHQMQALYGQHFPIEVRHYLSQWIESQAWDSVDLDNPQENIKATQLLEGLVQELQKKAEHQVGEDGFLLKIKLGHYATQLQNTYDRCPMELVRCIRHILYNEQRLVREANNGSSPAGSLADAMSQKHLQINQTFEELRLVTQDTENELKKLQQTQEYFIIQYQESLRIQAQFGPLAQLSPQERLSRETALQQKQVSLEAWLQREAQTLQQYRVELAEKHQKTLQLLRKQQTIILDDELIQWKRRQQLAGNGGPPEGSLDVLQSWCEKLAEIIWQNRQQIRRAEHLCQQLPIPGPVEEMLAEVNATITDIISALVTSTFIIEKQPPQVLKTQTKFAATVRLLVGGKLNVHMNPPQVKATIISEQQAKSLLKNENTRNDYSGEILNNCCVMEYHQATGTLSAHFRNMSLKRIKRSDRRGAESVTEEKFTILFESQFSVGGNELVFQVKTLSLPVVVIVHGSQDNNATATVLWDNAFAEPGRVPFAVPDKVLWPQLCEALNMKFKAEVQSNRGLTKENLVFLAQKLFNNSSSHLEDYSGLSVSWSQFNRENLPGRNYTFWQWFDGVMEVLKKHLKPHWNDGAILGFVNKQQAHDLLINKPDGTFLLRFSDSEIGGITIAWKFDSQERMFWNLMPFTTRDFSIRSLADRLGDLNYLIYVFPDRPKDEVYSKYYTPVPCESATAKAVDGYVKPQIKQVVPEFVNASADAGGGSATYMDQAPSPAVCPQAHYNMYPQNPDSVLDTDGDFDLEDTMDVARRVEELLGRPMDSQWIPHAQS
Description: as §1

IC50 [1] [µM] | Ki [1] [µM] | IC50 [2] [µM] | Ki [2] [µM] | SMILES
152 | 75 |  |  | COc1cc(CNC(=O)CCCCCCC(C)C)ccc1OP(=O)(O)O [2-Methoxy-4-((8-methylnonanamido)methyl)phenyl dihydrogen phosphate (3a)]
98 | 49 | 196 | 96 | CCCCCCCCC(=O)NCc1ccc(OP(=O)(O)O)c(OC)c1 [2-Methoxy-4-(nonanamidomethyl)phenyl dihydrogen phosphate (3b)]
26.4 | 13 | 0.75 | 0.34 | CC(C)CCCCCCC(=O)NCc1ccc(OP(=O)(O)O)c(OP(=O)(O)O)c1 [4-((8-Methylnonanamido)methyl)-1,2-phenylene bis(dihydrogen phosphate) (6a)]
24.9 | 12.3 | 0.86 | 0.39 | CCCCCCCCC(=O)NCc1ccc(OP(=O)(O)O)c(OP(=O)(O)O)c1 [4-(Nonanamidomethyl)-1,2-phenylene bis(dihydrogen phosphate) (6b)]
